Test results as given in US20210128654A1, “COMPOSITION FOR TREATING, PREVENTING, OR IMPROVING MALE INFERTILITY” (Mugen General Incorporated Association, priority 2018, published 2021).

Key:
Type in all cases: in vivo
[1] = system: male testis-specific non-mitochondrial GPx4 knockout mouse; assay: Abnormal sperm ratio and sperm-tail fold angle by microscopy; conditions: "VE high-content feed": vitamin E 100 mg + CE-2 feed 100 g; FIG. 4
Description: A single 3 weeks-old male testis-specific non-mitochondrial GPx4 knockout mouse was assigned to each of the four groups shown in Table 2 (below) and separately raised (singly per cage) up to 8 weeks-old. To a normal control group, mouse breeding feed CE-2 (CLEA Rodent Diet CE-2; a product manufactured by CLEA Japan, Inc.) was fed during the test period. As a positive control substance, vitamin E (Non Patent Literature 1), which is used in treatment for male infertility, was selected and a mixture of feed CE-2 and vitamin E was fed to a positive control substance administration group during the test period. The ratio of vitamin E in the mixture was 100 mg relative to 100 g of feed CE-2. To the test groups, a mixture of feed CE-2 and koji mold fermentation product obtained in Example 1 was fed during the test period. For a low dose group, a feed having a content of koji mold fermentation product of 0.5 wt % was used. […]
In a testis-specific non-mitochondrial GPx4 knockout mouse, a half or more of the sperms have an abnormal structure (a sperm tail is folded to form a hair-pin structure); in other words, abnormal sperm morphology. […] The sperms in a plurality of fields of view under the microscope were photographed, and the numbers of normal sperms and abnormal sperms in the photographs were counted, and then, an average ratio of abnormal sperms was calculated.

[2] = system: male testis-specific non-mitochondrial GPx4 knockout mouse; assay: Mating test of male infertility model mouse (number of pregnancies and child mice); conditions: "VE high-content feed": vitamin E 100 mg + CE-2 feed 100 g, mating period 3 months
Description: In this Example, as a male infertility model mouse, a male testis-specific non-mitochondrial GPx4 knockout mouse was used (see, Non Patent Literature 2). The testis-specific non-mitochondrial GPx4 knockout mouse is a mouse deficient in non-mitochondrial phospholipid hydroperoxide glutathione peroxidase (cGPx4) in the testis and has the phenotypes listed in the following Table 1.
A single 3 weeks-old male testis-specific non-mitochondrial GPx4 knockout mouse was assigned to each of the four groups shown in Table 2 (below) and separately raised (singly per cage) up to 8 weeks-old. To a normal control group, mouse breeding feed CE-2 (CLEA Rodent Diet CE-2; a product manufactured by CLEA Japan, Inc.) was fed during the test period. As a positive control substance, vitamin E (Non Patent Literature 1), which is used in treatment for male infertility, was selected and a mixture of feed CE-2 and vitamin E was fed to a positive control substance administration group during the test period. The ratio of vitamin E in the mixture was 100 mg relative to 100 g of feed CE-2. To the test groups, a mixture of feed CE-2 and koji mold fermentation product obtained in Example 1 was fed during the test period. For a low dose group, a feed having a content of koji mold fermentation product of 0.5 wt % was used. For a high dose group, a feed having a content of koji mold fermentation product of 5.0 wt % was used. Feed CE-2 and feed CE-2 mixed with the positive control substance or a koji mold fermentation product were free to take and water was free to drink from a water-supply bottle. In the aforementioned conditions, mice were raised from 3 weeks-old to 8 weeks-old.
When male testis-specific non-mitochondrial GPx4 knockout mice grew up to be crossable (8 weeks-old) mice, three of 7 weeks-old BALB/c female mice were assigned to each cage and crossed with a single male testis-specific non-mitochondrial GPx4 knockout mouse. The mating period was 3 months. […]

[3] = system: male testis-specific non-mitochondrial GPx4 knockout mouse; assay: Testis tissue observation (hematoxylin eosin), removal of spermatocytes; conditions: "VE high-content feed": vitamin E 100 mg + CE-2 feed 100 g; FIG. 6
Description: A single 3 weeks-old male testis-specific non-mitochondrial GPx4 knockout mouse was assigned to each of the four groups shown in Table 2 (below) and separately raised (singly per cage) up to 8 weeks-old. To a normal control group, mouse breeding feed CE-2 (CLEA Rodent Diet CE-2; a product manufactured by CLEA Japan, Inc.) was fed during the test period. As a positive control substance, vitamin E (Non Patent Literature 1), which is used in treatment for male infertility, was selected and a mixture of feed CE-2 and vitamin E was fed to a positive control substance administration group during the test period. The ratio of vitamin E in the mixture was 100 mg relative to 100 g of feed CE-2. To the test groups, a mixture of feed CE-2 and koji mold fermentation product obtained in Example 1 was fed during the test period. For a low dose group, a feed having a content of koji mold fermentation product of 0.5 wt % was used. For a high dose group, a feed having a content of koji mold fermentation product of 5.0 wt % was used. Feed CE-2 and feed CE-2 mixed with the positive control substance or a koji mold fermentation product were free to take and water was free to drink from a water-supply bottle. In the aforementioned conditions, mice were raised from 3 weeks-old to 8 weeks-old. […]

For vitamin E, the “significantly low ratio of abnormal sperms” value [1] was “not observed”, the “total number of child mice” value ([2]; 3 females, FIG. 2b) was 60 and the “number of child mice per delivery of the female mice” value ([2]; FIG. 2c) was 7. For the same substance, the “total number of pregnancies of three female mice” value ([2]; single male x 3 BALB/c females, FIG. 2a) was 8 and the “removal of the spermatocytes in testis tissue” value [3] was “improved”.
